Measured values as given in US20220144838A1, “Compounds as Inhibitors of Macrophage Migration Inhibitory Factor” (NANJING IMMUNOPHAGE BIOTECH CO., LTD., priority 2019, published 2022).

Target: T1, MIF (Homo sapiens, UniProt P14174)
T1 sequence (P14174 2-115 limits assumed): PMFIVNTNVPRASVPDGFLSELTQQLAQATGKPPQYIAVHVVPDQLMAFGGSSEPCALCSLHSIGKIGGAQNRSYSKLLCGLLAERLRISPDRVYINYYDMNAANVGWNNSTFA
Experiment: MIF tautomerase assay using pHPP as substrate
Type: biochemical
Settings: inhibition of the MIF enzyme in vitro; mean of multiple test results; read-out: Tautomerase Inhibition pIC50 (converted)
Outline: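 Mean pIC50 derived from initial rates (absorbance progress-curve slopes) of MIF-catalyzed ketonic-to-enolic pHPP conversion, read as enol–borate complex. Reactions contained 1.5 mM substrate and 3 nM enzyme (final), 200 mM boric acid stock buffer, BSA and CHAPS, pH 6.0.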

| IC50 [nM] | SMILES |
| --- | --- |
| 1000 to 9770 | CS(=O)(=O)NCCn1cnc2c(-n3ncc4ccccc43)nc(N3CCN(c4ccc(O)cc4)CC3)nc21 [Example 139, N-(2-(2-(4-(4-hydroxyphenyl)piperazin-1-yl)-6-(1H-indazol-1-yl)-9H-purin-9-yl)ethyl)methanesulfonamide] |
| > 10000 | O=C(O)Cn1cnc2c(-n3ncc4ccccc43)nc(N3CCN(c4ccc5[nH]ncc5c4)CC3)nc21 [Example 140, 2-(2-(4-(1H-indazol-5-yl)piperazin-1-yl)-6-(1H-indazol-1-yl)-9H-purin-9-yl)acetic acid] |
| 10 to 97.7 | CC(C)(C(=O)O)n1cnc2c(-n3ncc4ccccc43)nc(N3CCN(c4ccc(O)cn4)CC3)nc21 [Example 141, 2-(2-(4-(5-hydroxypyridin-2-yl)piperazin-1-yl)-6-(1H-indazol-1-yl)-9H-purin-9-yl)-2-methylpropanoic acid] |
| 10 to 97.7 | CCC(C(=O)O)n1cnc2c(-n3ncc4ccccc43)nc(N3CCN(c4ccc(O)cn4)CC3)nc21 (centres unmarked) [Example 142, 2-(2-(4-(5-hydroxypyridin-2-yl)piperazin-1-yl)-6-(1H-indazol-1-yl)-9H-purin-9-yl)butanoic acid] |
| 100 to 977 | CN(C)Cc1cccc2c1cnn2-c1nc(N2CCN(c3ccc(O)cc3)CC2)nc2c1ncn2CC(=O)O [Example 143, 2-(6-(4-((dimethylamino)methyl)-1H-indazol-1-yl)-2-(4-(4-hydroxyphenyl)piperazin-1-yl)-9H-purin-9-yl)acetic acid] |
| 100 to 977 | CN(C)Cc1cccc2c1cnn2-c1nc(N2CCN(c3ccc(O)cn3)CC2)nc2c1ncn2CC(=O)O [Example 144, 2-(6-(4-((dimethylamino)methyl)-1H-indazol-1-yl)-2-(4-(5-hydroxypyridin-2-yl)piperazin-1-yl)-9H-purin-9-yl)acetic acid] |
| 10 to 97.7 | CC(C(=O)O)n1cnc2c(-n3ncc4ccccc43)nc(N3CCN(c4ccc(O)cn4)CC3)nc21 (centres unmarked) [Example 145, 2-(2-(4-(5-hydroxypyridin-2-yl)piperazin-1-yl)-6-(1H-indazol-1-yl)-9H-purin-9-yl)propanoic acid] |
| 10 to 97.7 | O=C(O)CCCn1cnc2c(-n3ncc4ccccc43)nc(N3CCN(c4ccc(O)cc4)CC3)nc21 [Example 146, 4-(2-(4-(4-hydroxyphenyl)piperazin-1-yl)-6-(1H-indazol-1-yl)-9H-purin-9-yl)butanoic acid] |
| 1000 to 9770 | C=CCc1nn(-c2nc(N3CCN(c4ccc(O)cc4)CC3)nc3c2ncn3CC(=O)O)c2ccccc12 [Example 147, 2-(6-(3-allyl-1H-indazol-1-yl)-2-(4-(4-hydroxyphenyl)piperazin-1-yl)-9H-purin-9-yl)acetic acid] |
| 10 to 97.7 | O=C(O)CCCCn1cnc2c(-n3ncc4ccccc43)nc(N3CCN(c4ccc(O)cn4)CC3)nc21 [Example 149, 5-(2-(4-(5-hydroxypyridin-2-yl)piperazin-1-yl)-6-(1H-indazol-1-yl)-9H-purin-9-yl)pentanoic acid] |
| 10 to 97.7 | O=C(O)CCCCn1cnc2c(-n3ncc4ccccc43)nc(N3CCN(c4ccc(O)cc4)CC3)nc21 [Example 150, 5-(2-(4-(4-hydroxyphenyl)piperazin-1-yl)-6-(1H-indazol-1-yl)-9H-purin-9-yl)pentanoic acid] |
| 10 to 97.7 | O=C(O)C(CC1CC1)n1cnc2c(-n3ncc4ccccc43)nc(N3CCN(c4ccc(O)cn4)CC3)nc21 (centres unmarked) [Example 151, 3-cyclopropyl-2-(2-(4-(5-hydroxypyridin-2-yl)piperazin-1-yl)-6-(1H-indazol-1-yl)-9H-purin-9-yl)propanoic acid] |
| 10 to 97.7 | OCCn1cnc2c(-n3nc(CO)c4ccccc43)nc(N3CCN(c4ccc(O)cc4)CC3)nc21 [Example 152, 4-(4-(9-(2-hydroxyethyl)-6-(3-(hydroxymethyl)-1H-indazol-1-yl)-9H-purin-2-yl)piperazin-1-yl)phenol] |
| 1000 to 9770 | Cc1cc(N2CCN(c3nc(-n4ncc5ccccc54)c4ncn(CCO)c4n3)CC2)ccc1O [Example 153, 4-(4-(9-(2-hydroxyethyl)-6-(1H-indazol-1-yl)-9H-purin-2-yl)piperazin-1-yl)-2-methylphenol] |
| > 10000 | OCCn1cnc2c(-n3ncc4ccccc43)nc(N3CCN(c4ccc(CO)cn4)CC3)nc21 [Example 154, 2-(2-(4-(5-(hydroxymethyl)pyridin-2-yl)piperazin-1-yl)-6-(1H-indazol-1-yl)-9H-purin-9-yl)ethan-1-ol] |
| 10 to 97.7 | Nc1nc(N2CCC(O)(c3ccc(O)cc3)CC2)nc2c1ncn2-c1ccncc1 [Example 155, 1-(6-amino-9-(pyridin-4-yl)-9H-purin-2-yl)-4-(4-hydroxyphenyl)piperidin-4-ol] |
| > 10000 | Nc1nc(N2CC=C(c3ccc(O)cc3)CC2)nc2c1ncn2-c1ccncc1 [Example 156, 4-(1-(6-amino-9-(pyridin-4-yl)-9H-purin-2-yl)-1,2,3,6-tetrahydropyridin-4-yl)phenol] |
| 10 to 97.7 | Nc1nc(N2CCC(c3ccc(O)cc3)CC2)nc2c1ncn2-c1ccncc1 [Example 157, 4-(1-(6-amino-9-(pyridin-4-yl)-9H-purin-2-yl)piperidin-4-yl)phenol] |

| IC50 [nM] | SMILES |
| --- | --- |
| 100 to 977 | OCCn1cnc2c(-n3ncc4ccccc43)nc(N3CCC(O)(c4ccc(O)cc4)CC3)nc21 [Example 158, 1-(9-(2-hydroxyethyl)-6-(1H-indazol-1-yl)-9H-purin-2-yl)-4-(4-hydroxyphenyl)piperidin-4-ol] |
| > 10000 | OCCn1cnc2c(-n3ncc4ccccc43)nc(N3CC=C(c4ccc(O)cc4)CC3)nc21 [Example 159, 4-(1-(9-(2-hydroxyethyl)-6-(1H-indazol-1-yl)-9H-purin-2-yl)-1,2,3,6-tetrahydropyridin-4-yl)phenol] |
| > 10000 | Cc1nc(N2CCC(O)(c3ccc(O)cc3)CC2)nc2c1ncn2CCCCC(=O)O [Example 160, 5-(2-(4-hydroxy-4-(4-hydroxyphenyl)piperidin-1-yl)-6-methyl-9H-purin-9-yl)pentanoic acid] |
| > 10000 | O=C(O)Cn1cnc2c(-n3ncc4ccccc43)nc(N3CCC(O)(c4ccccc4)C3)nc21 (centres unmarked) [Example 161, 2-(2-(3-hydroxy-3-phenylpyrrolidin-1-yl)-6-(1H-indazol-1-yl)-9H-purin-9-yl)acetic acid] |
| 100 to 977 | COC(=O)CNc1nc(N2CCN(c3ccc(O)cc3)CC2)nc2c1ncn2-c1ccncc1 [Example 162, Methyl (2-(4-(4-hydroxyphenyl)piperazin-1-yl)-9-(pyridin-4-yl)-9H-purin-6-yl)glycinate] |
| 10 to 97.7 | O=C(O)CNc1nc(N2CCN(c3ccc(O)cc3)CC2)nc2c1ncn2-c1ccncc1 [Example 163, (2-(4-(4-hydroxyphenyl)piperazin-1-yl)-9-(pyridin-4-yl)-9H-purin-6-yl)glycine] |
| 10 to 97.7 | O=C(O)C1CCN(c2nc(N3CCN(c4ccc(O)cc4)CC3)nc3c2ncn3-c2ccncc2)C1 (centres unmarked) [Example 164, 1-(2-(4-(4-hydroxyphenyl)piperazin-1-yl)-9-(pyridin-4-yl)-9H-purin-6-yl)pyrrolidine-3-carboxylic acid] |
| 10 to 97.7 | CN(CCC(=O)O)c1nc(N2CCN(c3ccc(O)cc3)CC2)nc2c1ncn2-c1ccncc1 [Example 165, 3-((2-(4-(4-hydroxyphenyl)piperazin-1-yl)-9-(pyridin-4-yl)-9H-purin-6-yl)(methyl)amino)propanoic acid] |
| 10 to 97.7 | CN(CC(=O)O)c1nc(N2CCN(c3ccc(O)cc3)CC2)nc2c1ncn2-c1ccncc1 [Example 166, 3N-(2-(4-(4-hydroxyphenyl)piperazin-1-yl)-9-(pyridin-4-yl)-9H-purin-6-yl)-N-methylglycine] |
| 10 to 97.7 | O=C(O)C1CCCN1c1nc(N2CCN(c3ccc(O)cc3)CC2)nc2c1ncn2-c1ccncc1 (centres unmarked) [Example 167, (2-(4-(4-hydroxyphenyl)piperazin-1-yl)-9-(pyridin-4-yl)-9H-purin-6-yl)proline] |
| 10 to 97.7 | O=C(O)CCN(CCO)c1nc(N2CCN(c3ccc(O)cc3)CC2)nc2c1ncn2-c1ccncc1 [Example 168, 3-((2-hydroxyethyl)(2-(4-(4-hydroxyphenyl)piperazin-1-yl)-9-(pyridin-4-yl)-9H-purin-6-yl)amino)propanoic acid] |
| 10 to 97.7 | CCC(CO)N(C)c1nc(N2CCN(c3ccc(O)cc3)CC2)nc2c1ncn2-c1cccnc1 (centres unmarked) [Example 169, 4-(4-(6-((1-hydroxybutan-2-yl)(methyl)amino)-9-(pyridin-3-yl)-9H-purin-2-yl)piperazin-1-yl)phenol] |
| 10 to 97.7 | O=C(O)C1CCCN(c2nc(N3CCN(c4ccc(O)cc4)CC3)nc3c2ncn3-c2ccncc2)C1 (centres unmarked) [Example 170, 1-(2-(4-(4-hydroxyphenyl)piperazin-1-yl)-9-(pyridin-4-yl)-9H-purin-6-yl)piperidine-3-carboxylic acid] |
| 10 to 97.7 | Oc1ccc(N2CCN(c3nc(N4C[C@H](O)[C@@H](O)C4)c4ncn(-c5ccncc5)c4n3)CC2)cc1 [Example 171, (3S,4S)-1-(2-(4-(4-hydroxyphenyl)piperazin-1-yl)-9-(pyridin-4-yl)-9H-purin-6-yl)pyrrolidine-3,4-diol] |
| 10 to 97.7 | CC1(C(=O)O)CCCN1c1nc(N2CCN(c3ccc(O)cc3)CC2)nc2c1ncn2-c1ccncc1 (centres unmarked) [Example 172, 1-(2-(4-(4-hydroxyphenyl)piperazin-1-yl)-9-(pyridin-4-yl)-9H-purin-6-yl)-2-methylpyrrolidine-2-carboxylic acid] |
| 10 to 97.7 | OCC(CO)Nc1nc(N2CCN(c3ccc(O)cc3)CC2)nc2c1ncn2-c1ccncc1 [Example 173, 2-((2-(4-(4-hydroxyphenyl)piperazin-1-yl)-9-(pyridin-4-yl)-9H-purin-6-yl)amino)propane-1,3-diol] |
| 10 to 97.7 | O=C1CN(c2nc(N3CCN(c4ccc(O)cc4)CC3)nc3c2ncn3-c2ccncc2)CCN1 [Example 174, 4-(2-(4-(4-hydroxyphenyl)piperazin-1-yl)-9-(pyridin-4-yl)-9H-purin-6-yl)piperazin-2-one] |
